From patent EP0589039A1, “[…] DERIVATIVE AND PHARMACEUTICAL PREPARATION CONTAINING THE SAME” (Asahi Kasei Kogyo Kabushiki Kaisha, priority 1991, dated 1992)
Like-named read-outs stand apart in the source and are kept apart here.

Assays:
[1] = system: human breast cancer cell line MCF-7; assay: Growth inhibition of human breast cancer cell MCF-7 (Methylene Blue staining); format: cell-based; settings: read-out: Growth inhibition of MCF-7 (human breast cancer cells) (IC₅₀)
Method: (Growth inhibition of human breast cancer cell MCF-7)
Effect of the compound of the present invention on breast cancer were examined using a human breast cancer cell line MCF-7. Predetermined dilutions of each compound of the present invention were added to a 96 well microtiter plate purchased from Falcon, and the cancer cells were inoculated into each well with a inoculum size of 10³ cells per well (10⁴ cells in the case of 100 nM estrogen (E)). The thus prepared plate was supplied with RPMI 1640 medium which has been supplemented with 5% of fetal bovine serum and further with a predetermined amount of estrogen, and incubated at 37°C for 6 days (3 days in the case of 100 nM estrogen) in the presence of 5% CO₂. Thereafter, viable cells were fixed with glutaraldehyde and stained with Methylene Blue to measure absorbance at 665 nm.

[2] = system: human breast cancer cultured cell line ZR-75-1; assay: Growth inhibition of human breast cancer cultured cell line ZR-75-1 (Methylene Blue staining); format: cell-based; settings: 120 h, ZR-75-1, 10⁻⁹ mole of estrogen, 5 days, read-out: IC₅₀
Method: Effect of the triphenylalkene derivative of the present invention on breast cancer were examined using a human breast cancer cultured cell line ZR-75-1. Predetermined dilutions of each triphenylalkene derivative of the present invention were added to a 96 well microtiter plate purchased from Falcon, and the cancer cells were inoculated into each well with a inoculum size of 2 x 10³ cells per well. The thus prepared plate was supplied with RPMI 1640 medium which has been supplemented with 10% of fetal bovine serum and further with 10⁻⁹ mole of estrogen, and incubated at 37°C for 5 days in the presence of 5% CO₂. Thereafter, viable cells were fixed with glutaraldehyde, stained with Methylene Blue and then extracted with 0.33 N of hydrochloric acid to measure absorbance at 665 nm. […]

osteoporosis model rats = assay: Inhibition of decrease in bone density in ovariectomized osteoporosis model rats; format: in vivo, Fisher rats; settings: 400 µg/kg orally once a day for 4 months
Method: Effect of the compound of the present invention to inhibit decrease in the bone density was evaluated using osteoporosis model rats. […] The remaining 8 rats were subjected to sham operation and used as a control group (Group C). […] After completion of the administration, the left side femur of each rat was excised to measure its volume (V) and dry weight (W) to calculate a bone density (D) based on a formula, D = W/V [formula] . […]

[3] = MCF7, 72 h, 100 nM added amount of E (estrogen), 3 days, 10⁴ cells per well
[4] = MCF7, 144 h, 1 nM added amount of E (estrogen), 6 days
[5] = MCF7, 144 h, 0.1 nM added amount of E (estrogen), 6 days

| SMILES | IC50 [1, 4] | also measured |
| --- | --- | --- |
| CCC(=C(c1ccccc1)c1ccc(OCC(O)CN(C)C)cc1)c1ccc2c(c1)OCO2 (stereo not drawn) [Compound 34] | 6300 nM | IC50 [1, 3]: 10200 nM |
| CCC(=C(c1ccccc1)c1ccc(OCC(O)CN(C)CC)cc1)c1ccc2c(c1)OCO2 (stereo not drawn) [Compound 33] | – | IC50 [1, 5]: 600 nM |
| CCC(=C(c1ccc(OCOC)cc1)c1ccc(OCC(O)CN(C)C)cc1)c1ccc2c(c1)OCO2 (stereo not drawn) [Compound 32] | – | IC50 [1, 3]: 3800 nM |
| CCC(=C(c1ccc(C=NOC)cc1)c1ccc(OCCN(C)C)cc1)c1ccccc1 [Compound 22, 2-[4-[1-(4-methoxyiminomethylphenyl)-2-phenyl-1-butenyl]phenoxy]-N,N-dimethylamine] | 7100 nM | – |
| CCC(=C(c1ccccc1)c1ccc(OCC(O)CNC2CCCCC2)cc1)c1ccccc1 (stereo not drawn) [Compound 39] | – | IC50 [1, 3]: 5600 nM |
| CCC(=C(c1ccccc1)c1ccc(OC(CN(CC)CC)CN(CC)CC)cc1)c1ccccc1 [Compound 36] | 1600 nM | – |
| CC/C(=C(\c1ccccc1)c1ccc(OCC(O)CNC(C)C)cc1)c1ccccc1 (stereo not drawn) [Compound 14, (Z)-1-[4-(3-isopropylamino-2-hydroxypropoxy)-phenyl]-1,2-diphenyl-1-butene] | – | IC50 [1, 5]: 410 nM |
| CCC(=C(c1ccc(OCC(CN(C)C)OC(C)=O)cc1)c1ccc(OC(C)=O)cc1)c1ccc2c(c1)OCO2 (stereo not drawn) [Compound 15, (E·Z)-1-[4-(3-dimethylamino-2-acetoxypropoxy)-phenyl]-1-(4-acetoxyphenyl)-2-(3,4-methylenedioxyphenyl)-1-butene] | 310 nM | – |
| CCC(=C(c1ccc(O)cc1)c1ccc(OCC(O)CN(C)CC)cc1)c1ccc2c(c1)OCO2 (stereo not drawn) [Compound 3, (E·Z)-1-[4-(3-ethylmethylamino-2-hydroxypropoxy)phenyl]-1-(4-hydroxyphenyl)-2-(3,4-methylenedioxyphenyl)-1-butene] | 100 nM | – |
| CCC(=C(c1ccc(OCCN(C)C)cc1)c1cccc(C=NO)c1)c1ccccc1 [Compound 23, 2-[4-[1-(3-hydroxyiminomethylphenyl)-2-phenyl-1-butenyl]phenoxy]-N,N-dimethylamine] | 6800 nM | – |
| CCC(=C(c1ccc(O)cc1)c1ccc(OCCN(C)C)cc1)c1ccc2c(c1)OCO2 [Compound 20, (E·Z)-1-[4-(2-dimethylaminoethoxy)phenyl]-1-(4-hydroxyphenyl)-2-(3,4-methylenedioxyphenyl)-1-butene] | 190 nM | – |
| CCC(=C(c1ccccc1)c1ccc(OCC(O)CNC2CCCC2)cc1)c1ccccc1 (stereo not drawn) [Compound 40] | – | IC50 [1, 3]: 2700 nM |
| CCC(=C(c1ccc(O)cc1)c1ccc(OC(CN(CC)CC)CN(CC)CC)cc1)c1ccc2c(c1)OCO2 [Compound 37] | 60 nM | – |
| CCC(=C(c1ccc(O)cc1)c1ccc(OCC(CN(C)C)OC(C)=O)cc1)c1ccc2c(c1)OCO2 (stereo not drawn) [Compound 16, (E·Z)-1-[4-(3-dimethylamino-2-acetoxypropoxy)-phenyl]-1-(4-hydroxyphenyl)-2-(3,4-methylenedioxyphenyl)-1-butene] | 160 nM | – |
| CCC(=C(c1ccccc1)c1ccc(OC(CN(C)C)CN(C)C)cc1)c1ccccc1 [Compound 35] | 1900 nM | – |
| CCC(=C(c1ccccc1)c1ccc(OCC(O)CNC2CCCCC2)cc1)c1ccc2c(c1)OCO2 (stereo not drawn) [Compound 38] | – | IC50 [1, 5]: 210 nM |
| CCC(=C(c1ccccc1)c1ccc(OCC(O)CNC2CCC2)cc1)c1ccccc1 (stereo not drawn) [Compound 41] | – | IC50 [1, 3]: 3400 nM |
| CCC(=C(c1ccc(O)cc1)c1ccc(OCC(O)CN(C)C)cc1)c1ccc2c(c1)OCO2 (stereo not drawn) [Compound 1, (E·Z)-1-[4-(3-dimethylamino-2-hydroxypropoxy)-phenyl]-1-(4-hydroxyphenyl)-2-(3,4-methylenedioxyphenyl)-1-butene] | – | inhibition of decrease in the bone density caused by the ovariectomy (osteoporosis model rats; compared with Tamoxifen): significantly inhibited decrease in the bone density; Bone density (osteoporosis model rats; left femur, D = W/V, ovariectomized rats): 1.0312 |
| CC/C(=C(\c1ccccc1)c1ccc(OCC(O)CN(C)C)cc1)c1ccc2c(c1)OCO2 (stereo not drawn) [Compound 6, (Z)-1-[4-(3-dimethylamino-2-hydroxypropoxy)-phenyl]-1-phenyl-2-(3,4-methylenedioxyphenyl)-1-butene] | 1800 nM | – |
| CCC(=C(c1ccc(O)cc1)c1ccc(OCC(O)CN(CC)CC)cc1)c1ccc2c(c1)OCO2 (stereo not drawn) [Compound 2, (E·Z)-1-[4-(3-diethylamino-2-hydroxypropoxy)-phenyl]-1-(4-hydroxyphenyl)-2-(3,4-methylenedioxyphenyl)-1-butene] | 60 nM | – |
| CCC(=C(c1ccc(O)cc1)c1ccc(OC(CN(C)C)CN(C)C)cc1)c1ccc2c(c1)OCO2 [Compound 18, (E·Z)-1-[4-(1,3-bisdimethylamino-2-propoxy)-phenyl]-1-(4-hydroxyphenyl)-2-(3,4-methylenedioxyphenyl)-1-butene] | 430 nM | – |
| CCNCC(O)COc1ccc(C(=C(CC)c2ccc3c(c2)OCO3)c2ccc(O)cc2)cc1 (stereo not drawn) [Compound 11, (E·Z)-1-[4-(3-ethylamino-2-hydroxypropoxy)-phenyl]-1-(4-hydroxyphenyl)-2-(3,4-methylenedioxyphenyl)-1-butene] | 50 nM | IC50 [2]: 1600 nM |
| CCC(=C(c1ccc(C=NO)cc1)c1ccc(OCCN(C)C)cc1)c1ccccc1 [Compound 21, 2-[4-[1-(4-hydroxyiminomethylphenyl)-2-phenyl-1-butenyl]phenoxy]-N,N-dimethylethylamine] | 4600 nM | – |

Continued, in another order:

| IC50 [1, 4] | SMILES | also measured |
| --- | --- | --- |
| 210 nM | CCC(=C(c1ccc(O)cc1)c1ccc(OCC(O)CN(C)C2CCCCC2)cc1)c1ccc2c(c1)OCO2 (stereo not drawn) [Compound 4, (E·Z)-1-[4-(3-cyclohexylmethylamino-2-hydroxypropoxy)phenyl]-1-(4-hydroxyphenyl)-2-(3,4-methylenedioxyphenyl)-1-butene] | – |
| 620 nM | CCC(=C(c1ccc(O)cc1)c1ccc(OCC(O)CNC2CCCCC2)cc1)c1ccccc1 (stereo not drawn) [Compound 8, (E·Z)-1-[4-(3-cyclohexylamino-2-hydroxypropoxy)-phenyl]-1-(4-hydroxyphenyl)-2-phenyl-1-butene] | IC50 [2]: 1400 nM |
| 500 nM | CCC(=C(c1ccc(O)cc1)c1ccc(OCC(O)CNC)cc1)c1ccc2c(c1)OCO2 (stereo not drawn) [Compound 10, (E·Z)-1-[4-(3-methylamino-2-hydroxypropoxy)-phenyl]-1-(4-hydroxyphenyl)-2-(3,4-,methylenedioxyphenyl)-1-butene] | IC50 [2]: 870 nM |
| 460 nM | CCC(=C(c1ccc(O)cc1)c1ccc(OCC(O)CNC2CCCCC2)cc1)c1ccc2c(c1)OCO2 (stereo not drawn) [Compound 9, (E·Z)-1-[4-(3-cyclohexylamino-2-hydroxypropoxy)-phenyl]-1-(4-hydroxyphenyl)-2-(3,4-,methylenedioxyphenyl)-1-butene] | IC50 [2]: 950 nM |
| 5400 nM | CCNCC(O)COc1ccc(/C(=C(/CC)c2ccccc2)c2ccccc2)cc1 (stereo not drawn) [Compound 13, (Z)-1-[4-(3-ethylamino-2-hydroxypropoxy)phenyl]-1,2-diphenyl-1-butene] | – |
| 210 nM | CCC(=C(c1ccc(O)cc1)c1ccc(OCC(O)CN(C)C)cc1)c1ccccc1 (stereo not drawn) [Compound 7, (E·Z)-1-[4-(3-dimethylamino-2-hydroxypropoxy)-phenyl]-1-(4-hydroxyphenyl)-2-phenyl-1-butene] | – |
| 3300 nM | CCC(=C(c1ccccc1)c1ccc(OCC(O)CN(C)C)cc1)c1ccccc1 (stereo not drawn) [Compound 30] | – |
| 1200 nM | CC/C(=C(\c1ccccc1)c1ccc(OCC(O)CNC2CCCCC2)cc1)c1ccccc1 (stereo not drawn) [Compound 12, (Z)-1-[4-(3-cyclohexylamino-2-hydroxypropoxy)-phenyl]-1,2-diphenyl-1-butene] | IC50 [2]: 1400 nM |
| 160 nM | CCC(=C(c1ccc(O)cc1)c1ccc(OCCNC2CCCCC2)cc1)c1ccc2c(c1)OCO2 [Compound 19, (E·Z)-1-[4-(2-cyclohexylaminoethoxy)phenyl]-1-(4-hydroxyphenyl)-2-(3,4-methylenedioxyphenyl)-1-butene] | – |
